Laboratory results published in patent US8058306B2, “Phenyl pyrrole aminoguanidine derivatives” (Action Pharma A/S, priority 2006, dated 2011).
Several values for one entry are separate records, joined by “and”; a condition that tells them apart may be missing. Identical values can stand only once. Entries after “also recorded” stand apart in the source; their conditions may differ. Like-named read-outs stand apart in the source and are kept apart here.

Experiment: Plasma kinetics in rat following intravenous and oral administration;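 on AUC0-∞: parameter is AUC from zero to infinity in ng·h/mL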
Type: in vivo, Sprague Dawley rats
Conditions: male rats
Procedure: This study determined the intravenous pharmacokinetics and oral bioavailability of compound 1 of the invention (see FIG. 1A, structure no. 1), compound 2 of the invention (see FIG. 1D, structure no. 19) and compound 3 of the invention (see FIG. 1I, structure no. 53) following administration to Sprague Dawley rats at a dose level of 10 mg/kg.
Six groups of 3 male rats received either a single intravenous or single oral administration of compound 1, 2 or 3 of the invention at a dose level of 10 mg/kg. Blood samples were obtained at various times after dosing. Plasma samples were analysed for unchanged test item using a suitable LC-MS/MS method. Pharmacokinetic parameters were estimated from individual plasma concentrations.
Eighteen male rats each received either a single intravenous or a single oral administration of either compound 1, 2 or 3 at a dose level of 10 mg/kg. The formulation was orally administered to each animal by gastric gavage and intravenously administered to each animal via a tail vein. The dose was administered at a dose volume of 5 mL/kg. The formulations were administered to each animal according to the details in the following table:
Blood samples (ca 0.3 mL) were removed from the femoral vein of each animal into tubes containing lithium heparin as anticoagulant.
Blood samples were collected from 3 rats at the following times after dose administration: • 3, 6, 15, 45 min and 1.5, 2.5, 4, 6, 8, 24 h post dose. Oral Administration
Blood samples were collected from 3 rats at the following times after dose administration: • 5, 15, 45 min and 1.5, 2.5, 4, 6, 8, 24 h post dose. Processing of Blood Samples
Pharmacokinetic parameters of compound 1, 2 and 3 were derived by non-compartmental analysis using WinNonLin Pro version 5.0.1 (Pharsight 2005). The following parameters were derived, where appropriate, from the individual plasma concentration versus time profiles:
• F % The absolute oral bioavailability calculated as [AUC0-t (oral)*Dose(iv)/AUC0-t (iv)*Dose (oral)]*100 based on mean values derived after oral and intravenous administration Consideration was given to the estimation of λz and corresponding t1/2 values. Three or more points are required within the terminal phase for λz and t1/2 to be estimated. The following additional variables were tabulated to aid identification of potentially unreliable estimates of t1/2 and AUC:
Pharmacokinetic parameters were reported as geometric mean except Tmax which was reported as the median. Geometric coefficient of variation was calculated as: […]
Actual sampling times were used for all calculations of pharmacokinetic parameters. Plasma concentrations that were below the limit of quantification were taken as zero for the pharmacokinetic analysis.

[1] = oral 10 mg/kg, individual animals, acetate, 10 mg/kg

AUC(0-inf) (male, Sprague Dawley, rat, plasma, po, 10 mg/kg, oral 10 mg/kg, Geometric mean): 837 ng·h/mL
AUC(0-t) (male, Sprague Dawley, rat, plasma, po, 10 mg/kg, oral 10 mg/kg, Geometric mean, read-out: AUC0-t): 509 ng·h/mL
Cmax (male, Sprague Dawley, rat, plasma, po, 10 mg/kg, oral 10 mg/kg, Geometric mean, read-out: Cmax): 108 ng/mL
MRT (male, Sprague Dawley, rat, plasma, po, 10 mg/kg, oral 10 mg/kg, Geometric mean, read-out: MRT): 6.83 h
half-life (male, Sprague Dawley, rat, plasma, po, 10 mg/kg, oral 10 mg/kg, Geometric mean, read-out: t1/2 (converted)): 3.3 h
Tmax (male, Sprague Dawley, rat, plasma, po, 10 mg/kg, oral 10 mg/kg, Geometric mean, read-out: tmax): 4.59 h
AUC(0-inf) (male, Sprague Dawley, rat, plasma, po, 10 mg/kg, oral 10 mg/kg, Median): 838 ng·h/mL
AUC(0-t) (male, Sprague Dawley, rat, plasma, po, 10 mg/kg, oral 10 mg/kg, Median, read-out: AUC0-t): 565 ng·h/mL
Cmax (male, Sprague Dawley, rat, plasma, po, 10 mg/kg, oral 10 mg/kg, Median, read-out: Cmax): 112 ng/mL
MRT (male, Sprague Dawley, rat, plasma, po, 10 mg/kg, oral 10 mg/kg, Median, read-out: MRT): 6.83 h
half-life (male, Sprague Dawley, rat, plasma, po, 10 mg/kg, oral 10 mg/kg, Median, read-out: t1/2 (converted)): 3.3 h
Tmax (male, Sprague Dawley, rat, plasma, po, 10 mg/kg, oral 10 mg/kg, Median, read-out: tmax): 4.02 h
AUC(0-inf) (male, Sprague Dawley, rat, plasma, po, 10 mg/kg, oral 10 mg/kg, individual animals): 863 ng·h/mL
AUC(0-t) (male, Sprague Dawley, rat, plasma, po, 10 mg/kg, oral 10 mg/kg, individual animals, read-out: AUC0-t): 605 ng·h/mL
Cmax (male, Sprague Dawley, rat, plasma, po, 10 mg/kg, oral 10 mg/kg, individual animals, read-out: Cmax): 132 ng/mL
MRT (male, Sprague Dawley, rat, plasma, po, 10 mg/kg, oral 10 mg/kg, individual animals, read-out: MRT): 6.82 h
half-life (male, Sprague Dawley, rat, plasma, po, 10 mg/kg, oral 10 mg/kg, individual animals, read-out: t1/2 (converted)): 3.19 h
Tmax (male, Sprague Dawley, rat, plasma, po, 10 mg/kg, oral 10 mg/kg, individual animals, read-out: tmax): 4.02 h
Tmax (male, Sprague Dawley, rat, plasma, po, 10 mg/kg, oral 10 mg/kg, from mean plasma concentrations, read-out: time post dose at which maximum plasma concentration was observed (tmax)): 4 h
half-life (male, Sprague Dawley, rat, plasma, po, 10 mg/kg, oral 10 mg/kg, read-out: apparent terminal half-life (converted)): 3.3 h
concentration at 0.08 h (male, Sprague Dawley, rat, plasma, po, 10 mg/kg, single oral 10 mg/kg, 0.08 h, individual animals, LLOQ 2.50 (Table X: * 5.0, ** 25, diluted samples), read-out: Sample Concentration in plasma): 2.53 ng/mL
concentration at 0.08 h (male, Sprague Dawley, rat, plasma, po, 10 mg/kg, single oral 10 mg/kg, 0.08 h, mean, read-out: Mean Concentration in plasma): 2.53 ng/mL
concentration at 0.25 h (male, Sprague Dawley, rat, plasma, po, 10 mg/kg, single oral 10 mg/kg, 0.25 h, mean of 3, read-out: Mean Concentration in plasma): 20.5 ng/mL
concentration at 0.75 h (male, Sprague Dawley, rat, plasma, po, 10 mg/kg, single oral 10 mg/kg, 0.75 h, individual animals, read-out: Sample Concentration in plasma): 29.1 ng/mL
concentration at 0.75 h (male, Sprague Dawley, rat, plasma, po, 10 mg/kg, single oral 10 mg/kg, 0.75 h, mean of 3, read-out: Mean Concentration in plasma): 30.8 ng/mL
concentration at 1.5 h (male, Sprague Dawley, rat, plasma, po, 10 mg/kg, single oral 10 mg/kg, 1.5 h, mean of 3, read-out: Mean Concentration in plasma): 39.2 ng/mL
concentration at 2.5 h (male, Sprague Dawley, rat, plasma, po, 10 mg/kg, single oral 10 mg/kg, 2.5 h, mean of 3, read-out: Mean Concentration in plasma): 62.7 ng/mL
concentration at 4 h (male, Sprague Dawley, rat, plasma, po, 10 mg/kg, single oral 10 mg/kg, 4 h, individual animals, read-out: Sample Concentration in plasma): 112 ng/mL
concentration at 4 h (male, Sprague Dawley, rat, plasma, po, 10 mg/kg, single oral 10 mg/kg, 4 h, mean of 3, read-out: Mean Concentration in plasma): 92.5 ng/mL
concentration at 6 h (male, Sprague Dawley, rat, plasma, po, 10 mg/kg, single oral 10 mg/kg, 6 h, individual animals, read-out: Sample Concentration in plasma): 70.4 ng/mL
concentration at 6 h (male, Sprague Dawley, rat, plasma, po, 10 mg/kg, single oral 10 mg/kg, 6 h, mean of 3, read-out: Mean Concentration in plasma): 80.1 ng/mL
concentration at 8 h (male, Sprague Dawley, rat, plasma, po, 10 mg/kg, single oral 10 mg/kg, 8 h, individual animals, LLOQ 2.50, read-out: Sample Concentration in plasma): 50.1 ng/mL
concentration at 8 h (male, Sprague Dawley, rat, plasma, po, 10 mg/kg, single oral 10 mg/kg, 8 h, mean, LLOQ 2.50, read-out: Mean Concentration in plasma): 60.8 ng/mL
mean absorption time (MAT) (oral 10 mg/kg): 3.52 h
MAT (oral 10 mg/kg, Arithmetic Mean): 3.59 h
MAT (oral 10 mg/kg, Geometric mean): 3.52 h
MAT (oral 10 mg/kg, Median): 3.59 h
AUC0-∞ [1]: 812 ng·h/mL
AUC(0-t) [1]: 565 ng·h/mL and 386 ng·h/mL
Cmax [1]: 85.5 ng/mL
MAT [1]: 2.86 h and 4.32 h
MRT [1]: 6.84 h
Tmax [1]: 6.00 h
t1/2 [1]: 3.42 h
maximum observed plasma concentration, mean value (oral 10 mg/kg, at tmax): 92.5 ng/mL
Sample Concentration in plasma (single intravenous 10 mg/kg, 0.05 h, individual animals, acetate, 10 mg/kg): 2940 ng/mL and 4040 ng/mL
Sample Concentration in plasma (single intravenous 10 mg/kg, 0.1 h, individual animals, acetate, 10 mg/kg): 1300 ng/mL and 1030 ng/mL
Sample Concentration in plasma (single intravenous 10 mg/kg, 0.25 h, individual animals, acetate, 10 mg/kg): 904 ng/mL and 954 ng/mL
Sample Concentration in plasma (single intravenous 10 mg/kg, 0.75 h, individual animals, acetate, 10 mg/kg): 445 ng/mL and 545 ng/mL
Sample Concentration in plasma (single intravenous 10 mg/kg, 1.5 h, individual animals, acetate, 10 mg/kg): 327 ng/mL and 403 ng/mL
Sample Concentration in plasma (single intravenous 10 mg/kg, 2.5 h, individual animals, acetate, 10 mg/kg): 274 ng/mL and 240 ng/mL
Sample Concentration in plasma (single intravenous 10 mg/kg, 4 h, individual animals, acetate, 10 mg/kg): 225 ng/mL and 171 ng/mL
Sample Concentration in plasma (single intravenous 10 mg/kg, 6 h, individual animals, acetate, 10 mg/kg): 129 ng/mL and 124 ng/mL
Sample Concentration in plasma (single intravenous 10 mg/kg, 8 h, individual animals, LLOQ 2.50, acetate, 10 mg/kg): <LLOQ and 100 ng/mL
Sample Concentration in plasma (single intravenous 10 mg/kg, 24 h, individual animals, LLOQ 2.50, acetate, 10 mg/kg): <LLOQ and 2.55 ng/mL
Sample Concentration in plasma (single oral 10 mg/kg, 0.08 h, individual animals, LLOQ 2.50 (Table X: * 5.0, ** 25, diluted samples), acetate, 10 mg/kg): <LLOQ
Sample Concentration in plasma (single oral 10 mg/kg, 0.25 h, individual animals, acetate, 10 mg/kg): 14.7 ng/mL and 14.1 ng/mL and 32.8 ng/mL
Sample Concentration in plasma (single oral 10 mg/kg, 0.75 h, individual animals, acetate, 10 mg/kg): 26.6 ng/mL and 36.6 ng/mL
Sample Concentration in plasma (single oral 10 mg/kg, 1.5 h, individual animals, acetate, 10 mg/kg): 61.4 ng/mL and 19.2 ng/mL and 37.0 ng/mL
Sample Concentration in plasma (single oral 10 mg/kg, 2.5 h, individual animals, acetate, 10 mg/kg): 82.5 ng/mL and 37.2 ng/mL and 68.4 ng/mL
Sample Concentration in plasma (single oral 10 mg/kg, 4 h, individual animals, acetate, 10 mg/kg): *33.4 ng/mL and 132 ng/mL
Sample Concentration in plasma (single oral 10 mg/kg, 6 h, individual animals, acetate, 10 mg/kg): 85.5 ng/mL and 84.5 ng/mL
Sample Concentration in plasma (single oral 10 mg/kg, 8 h, individual animals, LLOQ 2.50, acetate, 10 mg/kg): 76.1 ng/mL and 56.2 ng/mL
Sample Concentration in plasma (single oral 10 mg/kg, 24 h, individual animals, LLOQ 2.50): <LLOQ
Mean Concentration in plasma (single oral 10 mg/kg, 24 h, mean, LLOQ 2.50): <LLOQ
Compound: N=C(N)NN=CC=Cc1cccn1-c1ccccc1Br [Compound 3, [1-(2-bromophenyl)-1H-pyrrol-2-yl-allylideneamino]guanidinium acetate]
adverse effects (single intravenous or oral administration, 10 mg/kg, acetate): No adverse effects; also recorded: No adverse affects
